# Measurements as given in ChEMBL document CHEMBL1133906, “Leishmanicidal activity of some stilbenoids and related heterocyclic compounds” (Bioorg Med Chem Lett, 2001).
# Legend:
# Type in all cases: functional, organism-based
# Leishmania braziliensis = test: In vitro inhibitory activity against Leishmania braziliensis (M2903)
# Leishmania amazonensis = test: In vitro inhibitory activity against Leishmania amazonensis (PH8)
# Leishmania donovani = test: In vitro inhibitory activity against Leishmania donovani (PP75)
Compound,IC50 (Leishmania braziliensis) [µg/mL],IC50 (Leishmania amazonensis) [µg/mL],IC50 (Leishmania donovani) [µg/mL]
COc1cc(CC2(O)c3ccccc3C3=NCCCN32)cc(OC)c1OC (stereo unspecified),≥ 100,≥ 100,≥ 100
COc1cc(Cc2nn(C)c(=O)c3ccccc23)cc(OC)c1OC,≥ 100,≥ 100,≥ 100
COc1ccc(Cc2nnc(O)c3ccccc23)cc1OC,≥ 100,≥ 100,≥ 100
OC1(Cc2ccccc2)c2ccccc2C2=NCCCN21 (stereo unspecified),45,45,45
Cn1nc(Cc2ccc(Cl)cc2)c2ccccc2c1=O,≥ 100,≥ 100,64
COC(=O)c1c(CCc2ccc(OC)cc2)cc(O)cc1OC,≥ 100,≥ 100,≥ 100
COc1ccc(Cc2nn(C)c(=O)c3ccccc23)cc1,≥ 100,≥ 100,≥ 100
COc1ccc(CCc2cc(O)cc(OC)c2)cc1,≥ 100,≥ 100,≥ 100
O=C1O/C(=C\c2ccccc2)c2ccccc21,45,45,45
COc1ccc(Cc2nn(C)c(=O)c3ccccc23)cc1OC,≥ 100,≥ 100,≥ 100
Cn1nc(Cc2ccccc2)c2ccccc2c1=O,≥ 100,≥ 100,≥ 100
OC1(Cc2ccc(Cl)cc2)c2ccccc2C2=NCCCN21 (stereo unspecified),≥ 100,≥ 100,≥ 100
Oc1nnc(Cc2ccc3c(c2)OCO3)c2ccccc12,≥ 100,≥ 100,≥ 100
Oc1nnc(Cc2ccc(Cl)cc2)c2ccccc12,≥ 100,≥ 100,≥ 100
COc1ccc(/C=C2\OC(=O)c3ccccc32)cc1OC,≥ 100,≥ 100,≥ 100
COc1ccc(/C=C2/c3ccccc3C(=O)N2NC(C)(C)C)cc1,≥ 100,≥ 100,≥ 100
COc1cc(/C=C2\OC(=O)c3ccccc32)cc(OC)c1OC,≥ 100,52,≥ 100

Compound,IC50 (Leishmania braziliensis) [µg/mL],IC50 (Leishmania amazonensis) [µg/mL],IC50 (Leishmania donovani) [µg/mL]
OC1(Cc2ccc3c(c2)OCO3)c2ccccc2C2=NCCN21 (stereo unspecified),≥ 100,≥ 100,≥ 100
COc1cc(Cc2nnc(O)c3ccccc23)cc(OC)c1OC,≥ 100,≥ 100,≥ 100
O=C1O/C(=C\c2ccc3c(c2)OCO3)c2ccccc21,≥ 100,≥ 100,≥ 100
COc1cc(CC2(O)c3ccccc3C3=NCCN32)cc(OC)c1OC (stereo unspecified),≥ 100,≥ 100,≥ 100
COc1ccc(CC2(O)c3ccccc3C3=NCCCN32)cc1OC (stereo unspecified),≥ 100,≥ 100,≥ 100
OC1(Cc2ccccc2)c2ccccc2C2=NCCN21 (stereo unspecified),60,60,60
COc1ccc(Cc2nnc(O)c3ccccc23)cc1,≥ 100,≥ 100,≥ 100
COc1ccc(CC2(O)c3ccccc3C(=O)N2NC(C)(C)C)cc1 (stereo unspecified),≥ 100,≥ 100,≥ 100
Cn1nc(Cc2ccc3c(c2)OCO3)c2ccccc2c1=O,≥ 100,≥ 100,≥ 100
N=C(N)c1ccc(OCCCCCOc2ccc(C(=N)N)cc2)cc1 [PENTAMIDINE],1.3,1.3,1.3
OC1(Cc2ccc(Cl)cc2)c2ccccc2C2=NCCN21 (stereo unspecified),≥ 100,≥ 100,≥ 100
COc1ccc(CCc2cc(OC(C)=O)cc(OC)c2C(=O)O)cc1,62,62,62
COc1ccc(CCc2cc(O)cc(OC)c2C(=O)O)cc1 [ISONOTHOLAENIC ACID],32,32,32
O=c1[nH]nc(Cc2ccccc2)c2ccccc12,≥ 100,≥ 100,≥ 100
OC1(Cc2ccc3c(c2)OCO3)c2ccccc2C2=NCCCN21 (stereo unspecified),≥ 100,≥ 100,≥ 100
O=C1O/C(=C\c2ccc(Cl)cc2)c2ccccc21,≥ 100,≥ 100,52
COc1ccc(CC2(O)c3ccccc3C3=NCCN32)cc1OC (stereo unspecified),≥ 100,≥ 100,≥ 100

# Other lines, results leading:
IC50 (Leishmania braziliensis) [µg/mL],IC50 (Leishmania amazonensis) [µg/mL],IC50 (Leishmania donovani) [µg/mL],Compound
≥ 100,≥ 100,≥ 100,COc1ccc(CC2(O)c3ccccc3C3=NCCCN32)cc1 (stereo unspecified)
≥ 100,≥ 100,≥ 100,COc1ccc(C(=O)C(=O)c2ccccc2C(=O)N2CCCC2)cc1
75,75,75,CCN(CC)C(=O)c1ccccc1C(=O)C(=O)c1ccc(OC)cc1
≥ 100,≥ 100,≥ 100,O=C(Cc1ccccc1)c1ccccc1C(=O)N1CCCCC1
≥ 100,≥ 100,≥ 100,O=C(C(=O)c1ccccc1C(=O)N1CCCCC1)c1ccc2c(c1)OCO2
80,≥ 100,80,COc1ccc(C(=O)C(=O)c2ccccc2C(=O)N2CCCCC2)cc1
52,25,28,O=C(C(=O)c1ccccc1C(=O)N1CCCCC1)c1ccc(Cl)cc1
≥ 100,≥ 100,≥ 100,COc1ccc(CC(=O)c2ccccc2C(=O)N2CCCCC2)cc1OC
≥ 100,≥ 100,≥ 100,COc1ccc(/C=C2\OC(=O)c3ccccc32)cc1
75,75,75,O=C(C(=O)c1ccccc1C(=O)N1CCCCC1)c1ccccc1
≥ 100,≥ 100,≥ 100,COc1ccc(C(=O)C(=O)c2ccccc2C(=O)N2CCCCC2)cc1OC
52,28,52,COc1cc(C(=O)C(=O)c2ccccc2C(=O)N2CCCCC2)cc(OC)c1OC
10,7,7,COc1ccc(CCc2cc(O)cc(OC)c2C(=O)N2CCCCC2)cc1
7,10,20,COc1cc(CC(=O)c2ccccc2C(=O)N2CCCCC2)cc(OC)c1OC
≥ 100,≥ 100,≥ 100,COc1ccc(CC2(O)c3ccccc3C3=NCCN32)cc1 (stereo unspecified)
≥ 100,≥ 100,≥ 100,O=C(Cc1ccc(Cl)cc1)c1ccccc1C(=O)N1CCCCC1
≥ 100,≥ 100,≥ 100,COc1ccc(CC(=O)c2ccccc2C(=O)N2CCCCC2)cc1
≥ 100,≥ 100,≥ 100,O=C(Cc1ccc2c(c1)OCO2)c1ccccc1C(=O)N1CCCCC1
